Columns and labels:
SARS-CoV Urbani strain = assay type: cell-based
SARS-CoV 3CLpro = SARS-CoV 3CLpro (Severe acute respiratory syndrome coronavirus, UniProt P0C6X7); assay type: biochemical

O=C(On1nnc2ccccc21)c1ccc2[nH]ccc2c1 [Inhibitor 3]
antiviral activity (in words) (SARS-CoV Urbani strain): did not exhibit any antiviral activity

O=C(Oc1cncc(Cl)c1)c1cccc2[nH]ccc12 [Inhibitor 10]
potency enhancement over 5 (enzyme IC50) (SARS-CoV 3CLpro): 10 fold
